The source of these data is patent US20260365646A1, “AKT1 MODULATORS” (Alterome Therapeutics, Inc., priority 2022, published 2026).

A value given as a limit tells only on which side of the number the result lay.

T1 sequence (P31749 whole entry E17K): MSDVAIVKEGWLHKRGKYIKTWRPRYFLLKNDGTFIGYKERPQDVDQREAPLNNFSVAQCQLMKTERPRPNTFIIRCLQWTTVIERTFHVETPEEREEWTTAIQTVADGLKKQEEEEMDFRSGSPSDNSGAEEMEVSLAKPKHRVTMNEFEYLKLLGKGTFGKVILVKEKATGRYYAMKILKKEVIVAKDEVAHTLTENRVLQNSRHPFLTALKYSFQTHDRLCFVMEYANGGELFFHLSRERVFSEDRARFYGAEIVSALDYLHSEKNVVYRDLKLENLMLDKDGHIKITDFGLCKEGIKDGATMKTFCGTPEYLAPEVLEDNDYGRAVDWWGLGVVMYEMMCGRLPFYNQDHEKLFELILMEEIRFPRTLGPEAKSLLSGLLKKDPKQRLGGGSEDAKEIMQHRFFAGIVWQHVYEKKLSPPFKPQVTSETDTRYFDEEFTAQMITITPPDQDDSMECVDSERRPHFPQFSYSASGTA

The first assay has as its target T1, full length AKT E17K (Homo sapiens, UniProt P31749, E17K).
T1 construct: host or cells: HEK-293 (ATCC CRL-1573)
Description: NanoBRET Target Engagement (TE) Intracellular Kinase Assay. The assay is classed as cell-based.
Conditions: not given
An excerpt: The NanoBRET™ Target Engagement (TE) Intracellular Kinase Assays are based on the NanoBRET™ System (Promega Corporation), an energy transfer technique designed to measure molecular proximity in living cells. The NanoBRET™ TE Assays measure the apparent affinity of test compounds by competitive displacement of the NanoBRET™ tracer compound, which is a cell permeable molecule engineered to be reversibly bound to a NanoLuc® luciferase-kinase fusion expressed in cells. For compound screening, when a test compound binds to the selected kinase, the BRET signal is attenuated. […] All cells were evaluated for viability prior to transfection and optimization of the transfection was done prior to experimentation. […] Following transfection, cells were washed and resuspended in Opti-MEM. NanoBRET assays were performed in white, 384-well plates (Corning) at a density of 2×10^5 cells/well. All example compounds were prepared as concentrated stock solutions in DMSO (Sigma-Aldrich). Compounds are dissolved in DMSO to make 10 mM stock solution. […] A Labcyte ECHO 550 compound dispenser was used to facilitate compound transfer directly to cells. Cells were equilibrated for 2 hr with energy transfer probes and example compound prior to BRET measurements. […] For target engagement analysis, the energy transfer probes were added to the cells at concentrations optimized for the target in question (AKT E17K). Following compound incubation, NanoBRET NanoGlo Substrate (Promega Cat #Ni57D) and Extracellular Nanoluc Inhibitor (Promega Cat #N235C) was added according to the manufacturer's recommended protocol, and luminescence was measured on Envision Reader (Perkin Elmer) Multimode Luminometer equipped with 450 nm BPfilter (donor) and 600 nm LPfilter (acceptor), using 0.5 s integration time. Milli-BRET units (mBU) are calculated by multiplying the raw BRET values by 1000. Apparent tracer affinity values (EC50) were determined using the sigmoidal dose-response (variable slope). Competitive displacement data were then plotted and data were fit to determine the EC50 value for each example compound.
In general terms: BRET reads energy transfer from a luciferase to a nearby fluorophore.
Broadly, the EC50 is the concentration needed to bring the measured effect to its halfway point. Take `Nc1ncccc1-c1nc2ccc(-c3ccccc3)nc2n1-c1ccc(CN2CCN3c4c(c(=O)c4=O)OCC[C@H]3C2)cc1` [Example 89, (S)-7-(4-(2-(2-aminopyridin-3-yl)-5-phenyl-3H-imidazo[4,5-b]pyridin-3-yl)benzyl)-5,5a,6,7,8,9-hexahydro-4H-cyclobuta[b]pyrazino[1,2-d][1,4]oxazepine-1,2-dione]: the EC50 was more than 600 nM. Regarding `CCOc1c(N2CCN(Cc3ccc(-n4c(-c5cccnc5N)nc5ccc(-c6ccccc6)nc54)cc3)CC2)c(=O)c1=O` [Example 24, 3-(4-(4-(2-(2-Aminopyridin-3-yl)-5-phenyl-3H-imidazo[4,5-b]pyridin-3-yl)benzyl)piperazin-1-yl)-4-ethoxycyclobut-3-ene-1,2-dione], the EC50 was in the range of 60 to 600 nM. In turn, `[2H]C([2H])([2H])Oc1c(N2CCN(Cc3ccc(-n4c(-c5cccnc5N)nc5ccc(-c6ccccc6)nc54)cc3)CC2)c(=O)c1=O` [Example 23, 3-(4-(4-(2-(2-Aminopyridin-3-yl)-5-phenyl-3H-imidazo[4,5-b]pyridin-3-yl)benzyl)piperazin-1-yl)-4-(methoxy-d3)cyclobut-3-ene-1,2-dione] registered a 50% effective concentration (EC50) of 15 to 60 nM. On the same count and under the same terms, the result for `CCSc1c(N(C2CC2)C2CCN(Cc3ccc(-n4c(-c5cccnc5N)nc5ccc(-c6ccccc6)nc54)cc3)CC2)c(=O)c1=O` [Example 96, 3-((1-(4-(2-(2-aminopyridin-3-yl)-5-phenyl-3H-imidazo[4,5-b]pyridin-3-yl)benzyl)piperidin-4-yl)(cyclopropyl)amino)-4-(ethylthio)cyclobut-3-ene-1,2-dione] reads 15 to 60 nM; that for `COc1c(N2CCC(NCc3ccc(-n4c(-c5cccnc5N)nc5ccc(-c6ccccc6)nc54)cc3)CC2)c(=O)c1=O` [Example 77, 3-(4-((4-(2-(2-aminopyridin-3-yl)-5-phenyl-3H-imidazo[4,5-b]pyridin-3-yl)benzyl)amino)piperidin-1-yl)-4-methoxycyclobut-3-ene-1,2-dione], 15 to 60 nM. Same read-out and setting: in the case of `COc1c(N2CC3(CN(Cc4ccc(-n5c(-c6cccnc6N)nc6ccc(-c7ccccc7)nc65)cc4)C3)C2)c(=O)c1=O` [Example 41, 3-(6-(4-(2-(2-Aminopyridin-3-yl)-5-phenyl-3H-imidazo[4,5-b]pyridin-3-yl)benzyl)-2,6-diazaspiro[3.3]heptan-2-yl)-4-methoxycyclobut-3-ene-1,2-dione] it was more than 600 nM; in that of `COc1c(N2CCC3(CN(Cc4ccc(-n5c(-c6cccnc6N)nc6ccc(-c7ccccc7)nc65)cc4)C3)C2)c(=O)c1=O` [Example 42, 3-(2-(4-(2-(2-Aminopyridin-3-yl)-5-phenyl-3H-imidazo[4,5-b]pyridin-3-yl)benzyl)-2,6-diazaspiro[3.4]octan-6-yl)-4-methoxycyclobut-3-ene-1,2-dione], 15 to 60 nM; in that of `COc1c(N2CCN(Cc3ccc(-n4c(-c5cccnc5N)nc5ccc(-c6ccccc6)nc54)cc3)C[C@H]2C)c(=O)c1=O` [Example 67, (R)-3-(4-(4-(2-(2-aminopyridin-3-yl)-5-phenyl-3H-imidazo[4,5-b]pyridin-3-yl)benzyl)-2-methylpiperazin-1-yl)-4-methoxycyclobut-3-ene-1,2-dione], 60 to 600 nM.

For the compound `COc1c(N2CCCC3(CN(Cc4ccc(-n5c(-c6cccnc6N)nc6ccc(-c7ccccc7)nc65)cc4)C3)C2)c(=O)c1=O` [Example 65, 3-(2-(4-(2-(2-aminopyridin-3-yl)-5-phenyl-3H-imidazo[4,5-b]pyridin-3-yl)benzyl)-2,6-diazaspiro[3.5]nonan-6-yl)-4-methoxycyclobut-3-ene-1,2-dione], the EC50 was in the range of 60 to 600 nM. `COc1c(N2[C@H](C)CN(Cc3ccc(-n4c(-c5cccnc5N)nc5ccc(-c6ccccc6)nc54)cc3)C[C@H]2C)c(=O)c1=O` [Example 69, 3-((2R,6R)-4-(4-(2-(2-aminopyridin-3-yl)-5-phenyl-3H-imidazo[4,5-b]pyridin-3-yl)benzyl)-2,6-dimethylpiperazin-1-yl)-4-methoxycyclobut-3-ene-1,2-dione]: the EC50 lay within 60 to 600 nM. Still for that read-out and setting: in the case of `CC(C)Oc1c(N2CCN(Cc3ccc(-n4c(-c5cccnc5N)nc5ccc(-c6ccccc6)nc54)cc3)CC2)c(=O)c1=O` [Example 25, 3-(4-(4-(2-(2-Aminopyridin-3-yl)-5-phenyl-3H-imidazo[4,5-b]pyridin-3-yl)benzyl)piperazin-1-yl)-4-isopropoxycyclobut-3-ene-1,2-dione] it was more than 600 nM. Same read-out and setting: in the case of `Nc1ncccc1-c1nc2ccc(-c3ccccc3)nc2n1-c1ccc(CN2CCC(Nc3c(O)c(=O)c3=O)CC2)cc1` [Example 18, 3-((1-(4-(2-(2-Aminopyridin-3-yl)-5-phenyl-3H-imidazo[4,5-b]pyridin-3-yl)benzyl)piperidin-4-yl)amino)-4-hydroxycyclobut-3-ene-1,2-dione] it was more than 600 nM. The same measure, in the same setting: the result for `COc1c(N2CCC3(CCN(Cc4ccc(-n5c(-c6cccnc6N)nc6ccc(-c7ccccc7)nc65)cc4)CC3)CC2)c(=O)c1=O` [Example 99, 3-(9-(4-(2-(2-aminopyridin-3-yl)-5-phenyl-3H-imidazo[4,5-b]pyridin-3-yl)benzyl)-3,9-diazaspiro[5.5]undecan-3-yl)-4-methoxycyclobut-3-ene-1,2-dione] reads 15 to 60 nM; that for `CNc1c(NC2CCN(Cc3ccc(-n4c(-c5cccnc5N)nc5ccc(-c6ccccc6)nc54)cc3)CC2)c(=O)c1=O` [Example 20, 3-((1-(4-(2-(2-Aminopyridin-3-yl)-5-phenyl-3H-imidazo[4,5-b]pyridin-3-yl)benzyl)piperidin-4-yl)amino)-4-(methylamino)cyclobut-3-ene-1,2-dione], 60 to 600 nM.

Still in this assay, the particulars now being: read-out: NanoBRET AKT1E17K EC50; HEK-293 cells transfected with NanoLuc-AKT E17K; competitive displacement of NanoBRET tracer; 2 hr equilibration; 10-point 3-fold dilution.
Consider `COc1c(N2CC3(CCN(Cc4ccc(-n5c(-c6cccnc6N)nc6ccc(-c7ccccc7)nc65)cc4)C3)C2)c(=O)c1=O` [Example 55, 3-(6-(4-(2-(2-Aminopyridin-3-yl)-5-phenyl-3H-imidazo[4,5-b]pyridin-3-yl)benzyl)-2,6-diazaspiro[3.4]octan-2-yl)-4-methoxycyclobut-3-ene-1,2-dione], for which the EC50 was less than 15 nM.

Consider `COc1c(N[C@H]2CCN(Cc3ccc(-n4c(-c5cccnc5N)nc5ccc(-c6ccccc6)nc54)cc3)C2)c(=O)c1=O` [Example 30, (S)-3-((1-(4-(2-(2-Aminopyridin-3-yl)-5-phenyl-3H-imidazo[4,5-b]pyridin-3-yl)benzyl)pyrrolidin-3-yl)amino)-4-methoxycyclobut-3-ene-1,2-dione], for which the 50% effective concentration (EC50) was less than 15 nM. On the same count and under the same terms, in the case of `[2H]C([2H])([2H])N(c1c(OC)c(=O)c1=O)C1CCN(Cc2ccc(-n3c(-c4cccnc4N)nc4ccc(-c5ccccc5)nc43)cc2)CC1` [Example 100, 3-((1-(4-(2-(2-aminopyridin-3-yl)-5-phenyl-3H-imidazo[4,5-b]pyridin-3-yl)benzyl)piperidin-4-yl)(methyl-d3)amino)-4-methoxycyclobut-3-ene-1,2-dione] it was less than 15 nM; in that of `COc1c(N2CC3(CCN(Cc4ccc(-n5c(-c6cccnc6N)nc6ccc(-c7ccccc7)nc65)cc4)CC3)C2)c(=O)c1=O` [Example 53, 3-(7-(4-(2-(2-Aminopyridin-3-yl)-5-phenyl-3H-imidazo[4,5-b]pyridin-3-yl)benzyl)-2,7-diazaspiro[3.5]nonan-2-yl)-4-methoxycyclobut-3-ene-1,2-dione], less than 15 nM. In the case of `COc1c(N2CCC3(CC2)CN(Cc2ccc(-n4c(-c5cccnc5N)nc5ccc(-c6ccccc6)nc54)cc2)C3)c(=O)c1=O` [Example 60, 3-(2-(4-(2-(2-Aminopyridin-3-yl)-5-phenyl-3H-imidazo[4,5-b]pyridin-3-yl)benzyl)-2,7-diazaspiro[3.5]nonan-7-yl)-4-methoxycyclobut-3-ene-1,2-dione], the EC50 is less than 15 nM.

For `COc1c(N2CCC3(CCN(Cc4ccc(-n5c(-c6cccnc6N)nc6ccc(-c7ccccc7)nc65)cc4)C3)C2)c(=O)c1=O` (stereo not shown) [Example 56, 3-(7-(4-(2-(2-Aminopyridin-3-yl)-5-phenyl-3H-imidazo[4,5-b]pyridin-3-yl)benzyl)-2,7-diazaspiro[4.4]nonan-2-yl)-4-methoxycyclobut-3-ene-1,2-dione], the EC50 was less than 15 nM. The same measure, in the same setting: in the case of `CSc1c(N(C)C2CCN(Cc3ccc(-n4c(-c5cccnc5N)nc5ccc(-c6ccccc6)nc54)cc3)CC2)c(=O)c1=O` [Example 47, 3-((1-(4-(2-(2-aminopyridin-3-yl)-5-phenyl-3H-imidazo[4,5-b]pyridin-3-yl)benzyl)piperidin-4-yl)(methyl)amino)-4-(methylthio)cyclobut-3-ene-1,2-dione] it was less than 15 nM; in that of `COc1c(NC2CC3(CCN(Cc4ccc(-n5c(-c6cccnc6N)nc6ccc(-c7ccccc7)nc65)cc4)CC3)C2)c(=O)c1=O` [Example 35, 3-((7-(4-(2-(2-Aminopyridin-3-yl)-5-phenyl-3H-imidazo[4,5-b]pyridin-3-yl)benzyl)-7-azaspiro[3.5]nonan-2-yl)amino)-4-methoxycyclobut-3-ene-1,2-dione], less than 15 nM.
